These results are taken from US20260234139A1, “PGDH INHIBITORS AND METHODS OF MAKING AND USING” (Epirium Bio Inc., priority 2023, published 2026).

For orientation: IC50 means the point on the concentration scale where inhibition reaches its midpoint. For orientation: EC50 means the concentration at which the effect is half-maximal. Read a high EC50 as a less potent agent.

One experiment concerns the target T1, 15-PGDH/HPGD (Homo sapiens, UniProt P15428).
T1 construct: purchased R&D System 5660-DH
T1 sequence (P15428 1-266): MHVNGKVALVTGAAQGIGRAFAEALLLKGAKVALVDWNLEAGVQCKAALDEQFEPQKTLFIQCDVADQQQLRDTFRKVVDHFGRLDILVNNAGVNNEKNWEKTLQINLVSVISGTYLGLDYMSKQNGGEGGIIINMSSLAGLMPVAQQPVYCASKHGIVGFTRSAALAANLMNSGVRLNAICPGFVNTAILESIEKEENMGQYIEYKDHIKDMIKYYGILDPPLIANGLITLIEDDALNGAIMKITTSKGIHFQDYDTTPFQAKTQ
Put plainly: hPGDH inhibitor screening biochemical assay. Particulars: 10 nM enzyme, 15 μM Prostaglandin E2, 0.25 mM NAD, fluorescence ex/em 340/485 nm. An outline of the steps:
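Recombinant 15-PGDH (10 nM) preincubated with compound 10 min at 37° C, then 15 μM PGE2 and 0.25 mM NAD⁺ added for 10 min at room temperature in 50 mM Tris-HCl pH 7.5, 0.01% Tween 20. NADH fluorescence at ex/em 340/485 nm; 10-point dose response.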

The test system of the next experiment is A549. In words: A549 EC50 (cell assay, method not described). Type of experiment: cell-based. The conditions noted are these: Homo sapiens, A549, A549.

`CC(C)OCC(O)c1cnc2c(cnn2-c2cccc(-c3nnc[nH]3)c2)c1` (single isomer, unassigned) [Compound 18B] showed a concentration for half-maximal inhibition (IC50) on 15-PGDH/HPGD below 100 nM. For the same molecule, the EC50 with A549 lay within 100 to 1000 nM.

For `CC(C)OCC[C@H](O)c1cnc2c(ccn2-c2cccc(-c3nnc[nH]3)c2)c1` [Compound 41A], the IC50 against 15-PGDH/HPGD was below 100 nM. Also, in the experiment on A549, the EC50 was in the range of 100 to 1000 nM.

In the case of `CC(C)OC[C@@H](O)c1cnc2c(cnn2-c2ccc(CCCC(=O)O)c(F)c2)c1` [Compound 77A], the IC50 at 15-PGDH/HPGD was below 100 nM. In the experiment on A549, this molecule returned a concentration for a half-maximal effect (EC50) below 100 nM.

On 15-PGDH/HPGD, `CNC(=O)c1ccc(-n2ncc3cc([C@@H](O)COC4CCC4)cnc32)cc1` [Compound 84B] returned a 50% inhibitory concentration (IC50) of 100 to 1000 nM. Further, the EC50 in the experiment on A549 is at least 1000 nM.

On 15-PGDH/HPGD, `C[C@H](OC1CCC1)[C@H](O)c1cnc2c(cnn2-c2ccc(C(=O)O)cc2)c1` [Compound 108C] came in with an IC50 of 100 to 1000 nM. This molecule also gave an EC50 with A549 of 100 to 1000 nM.

In the case of `CC1(OC[C@@H](O)c2cnc3c(cnn3-c3ccc(C(=O)O)cc3)c2)CCC1` [Compound 90B], at 15-PGDH/HPGD, the IC50 was below 100 nM. This molecule also yielded a concentration for a half-maximal effect (EC50) in the experiment on A549 below 100 nM.

For the molecule `O=C(O)c1ccc(-n2ncc3cc([C@H](O)C4(OCC(F)F)CC4)cnc32)cc1` [Compound 72A], the IC50 against 15-PGDH/HPGD is below 100 nM. Moreover, the EC50 in the experiment on A549 was 100 to 1000 nM.

`CSc1cccc(-n2ncc3cc([C@@H](O)COC4CCC4)cnc32)c1` [Compound 122A]: on 15-PGDH/HPGD, the IC50 is below 100 nM. Also, the EC50 in the experiment on A549 is at least 1000 nM.

`Cc1nn(-c2ccc(C(=O)O)cc2)c2ncc([C@H](O)COC3CC3)cc12` [Compound 126B] registered an IC50 on 15-PGDH/HPGD below 100 nM. The same molecule showed an EC50 in the experiment with A549 of 100 to 1000 nM.

For `CC(C)OC[C@@H](O)c1cnc2c(cnn2-c2ccc(CCC(=O)O)cc2)c1` [Compound 69A], the 50% inhibitory concentration (IC50) on 15-PGDH/HPGD was below 100 nM. This molecule returned an EC50 with A549 below 100 nM.

On to `CC(C)OC[C@H](O)c1cnc2c(ccn2-c2cccc(-c3nnc[nH]3)c2)c1` [Compound 29A], for which the IC50 at 15-PGDH/HPGD is below 100 nM. Also, the EC50 in the experiment on A549 is below 100 nM.

`CN(C)C[C@@H](O)c1cnc2c(cnn2-c2cccc(-c3nnc[nH]3)c2)c1` [Compound 25B] showed an IC50 against 15-PGDH/HPGD of 100 to 1000 nM. Further, the EC50 in the experiment on A549 was at least 1000 nM.

In the case of `O[C@H](c1cnc2c(ccn2-c2cc(Cl)cc(-c3nnc[nH]3)c2)c1)C1CCC(F)(F)CC1` [Compound 12B], the IC50 on 15-PGDH/HPGD was below 100 nM. Besides, the concentration for a half-maximal effect (EC50) with A549 was below 100 nM.

With `CN(C)C(=O)c1ccc(-n2ncc3cc([C@H](O)COC4CCC4)cnc32)cc1` [Compound 80A], the IC50 against 15-PGDH/HPGD is below 100 nM. This molecule gave an EC50 in the experiment on A549 below 100 nM.

In the case of `CNC(=O)c1cccc(-n2ncc3cc([C@H](O)COC4CCC4)cnc32)c1` [Compound 110B], at 15-PGDH/HPGD, the IC50 is at least 1000 nM. The molecule further returned an EC50 in the experiment with A549 of at least 1000 nM.

Take `COC1([C@@H](O)c2cnc3c(cnn3-c3cccc(-c4nnc[nH]4)c3)c2)CCC1` [Compound 65A]: the concentration for half-maximal inhibition (IC50) on 15-PGDH/HPGD was in the range of 100 to 1000 nM. Moreover, the EC50 in the experiment with A549 lay in the range of 100 to 1000 nM.

For the molecule `CC(C)OC[C@H](O)c1cnc2c(cnn2-c2ccc(CCC(=O)O)cc2)c1` [Compound 69B], at 15-PGDH/HPGD, the IC50 lay in the range of 100 to 1000 nM. In the experiment on A549, the EC50 is 100 to 1000 nM.

On to `O[C@@H](c1cnc2c(cnn2-c2cccc(-c3nnc[nH]3)c2)c1)C1(OCC(F)F)CC1` [Compound 73B], for which the IC50 at 15-PGDH/HPGD is at least 1000 nM. Further, the EC50 in the experiment with A549 was at least 1000 nM.

`CNC(=O)c1ccc(-n2ncc3cc([C@H](O)COC(C)C)cnc32)cc1` [Compound 67A] showed an IC50 at 15-PGDH/HPGD below 100 nM. Moreover, in the experiment on A549, the half-maximal effective concentration (EC50) is below 100 nM.

Regarding `C[S+]([O-])c1ccc(-n2ncc3cc([C@@H](O)COC4CCC4)cnc32)cc1` (stereo partly drawn) [Compound 124A], the IC50 against 15-PGDH/HPGD was below 100 nM. The EC50 in the experiment with A549 is below 100 nM.

On 15-PGDH/HPGD, `O[C@@H](c1cnc2c(cnn2-c2cccc(-c3nnc[nH]3)c2)c1)C1CC2CC2C1` (stereo partly drawn) [Compound 50A] returned an IC50 below 100 nM. In the experiment on A549, this molecule showed an EC50 below 100 nM.

As to `O[C@@H](c1cnc2c(ccn2-c2cccc(-c3nnc[nH]3)c2)c1)C1CCC1` [Compound 10B], the half-maximal inhibitory concentration (IC50) at 15-PGDH/HPGD is below 100 nM. Moreover, in the experiment with A549, the EC50 was below 100 nM.

In turn, `CC(C)(OCC(F)F)[C@@H](O)c1cnc2c(cnn2-c2cccc(-c3nnc[nH]3)c2)c1` [Compound 61A] came in with an IC50 against 15-PGDH/HPGD below 100 nM. In addition, the EC50 in the experiment on A549 is below 100 nM.

For the molecule `CC(C)OC[C@H](O)c1cnc2c(cnn2-c2ccc(OCC(=O)O)c(F)c2)c1` [Compound 74B], at 15-PGDH/HPGD, the IC50 was 100 to 1000 nM. The same molecule had an EC50 in the experiment with A549 of at least 1000 nM.

`O[C@@H](c1cnc2c(ccn2-c2cc(Cl)cc(-c3nnc[nH]3)c2)c1)C1CCC(F)(F)CC1` [Compound 12A] displayed an IC50 against 15-PGDH/HPGD below 100 nM. The molecule further displayed a concentration for a half-maximal effect (EC50) with A549 of at least 1000 nM.

`CC(C)(O)CC[C@H](O)c1cnc2c(cnn2-c2cccc(-c3nnc[nH]3)c2)c1` [Compound 56A] had an IC50 on 15-PGDH/HPGD below 100 nM. In the experiment on A549, the EC50 fell in the range of 100 to 1000 nM.

The molecule `CN(C)C[C@H](O)c1cnc2c(cnn2-c2cccc(-c3nnc[nH]3)c2)c1` [Compound 25A] gave an IC50 against 15-PGDH/HPGD of 100 to 1000 nM. In the experiment on A549, this molecule returned an EC50 of at least 1000 nM.

As for `O=C(O)c1ccc(-n2ncc3cc([C@H](O)COCC4CC4)ccc32)cc1` [Compound 114B], the concentration for half-maximal inhibition (IC50) on 15-PGDH/HPGD is below 100 nM. This molecule also returned an EC50 in the experiment on A549 of 100 to 1000 nM.

In turn, `CC(C)OC[C@@H](O)c1cnc2c(ccn2-c2cccc(-c3nnc[nH]3)c2)n1` [Compound 20A] registered an IC50 against 15-PGDH/HPGD below 100 nM. In addition, the EC50 with A549 was below 100 nM.

The molecule `Cc1nn(-c2ccc(C(=O)O)cc2)c2ncc([C@H](O)COC3CCC3)cc12` [Compound 109B] had an IC50 against 15-PGDH/HPGD below 100 nM. The molecule also returned an EC50 in the experiment on A549 below 100 nM.

Regarding `CCOC1([C@@H](O)c2cnc3c(cnn3-c3cccc(-c4nnc[nH]4)c3)c2)CC1` [Compound 63B], the IC50 on 15-PGDH/HPGD was below 100 nM. The molecule also showed an EC50 with A549 of 100 to 1000 nM.

In turn, `O=C(O)c1ccc(-n2ncc3cc([C@H](O)COC4(C(F)(F)F)CCC4)cnc32)cc1` [Compound 115B] displayed an IC50 at 15-PGDH/HPGD below 100 nM. Also, the EC50 in the experiment with A549 is below 100 nM.

The molecule `CCOC[C@H](O)c1cnc2c(cnn2-c2cccc(-c3nnc[nH]3)c2)c1` [Compound 23A] came in with an IC50 at 15-PGDH/HPGD below 100 nM. This molecule showed an EC50 in the experiment with A549 of 100 to 1000 nM.
